Measured values published in patent US20030083339A1, “Compositions and methods for treating colorectal polyps and cancer” (priority 2001, published 2003).
Marks after values point to notes of the source that are not given here.

What was measured:
colon tumors [1] = assay: AOM-induced colon tumors in mouse strain crossbred from 129/Ola and C57BL/6J (Table 3); type: in vivo; conditions: 23 weeks; for Body Weight / Colon Tumors Multiplicity = average number of tumors/mouse / Colon Tumors Prevalence (%) = percent of tumor-bearing mice / Colon Tumors Total Number: AOM 10 mg/kg I.P. 4 consecutive weeks
Description: The colons and livers were macroscopically examined. […] Tumor size was measured with a caliper. […] In addition, the size of the tumors in wild type mice was large (over 55% of tumors 22 mm^3). The tumors were predominantly observed in the lower half of the descending colon.

hepatic CYP2E1 = hepatic CYP2E1 protein expression after AOM, Western blot of liver microsomes
Description: AT2 receptor antagonist PD123,319 treatment (15 mg/kg/12 h, gavage administration, and 50 μg/ml in drinking tap water) was initiated 3 h prior to the AOM treatment. The liver was dissected out and the microsomal fractions were subjected to SDS-polyacrylamide gel electrophoresis followed by immunoblotting with anti-human CYP2E1 antibodies.
AT2 receptor blocker PD123319 treatment (15 mg/kg/12 h, gavage administration and 50 μg/ml in drinking tap water) was initiated 3 h prior to the AOM treatment. The control group for the AOM treatment received saline. Mice for the short term study were sacrificed 6 h or 24 h after AOM treatment. […] The remaining tissues were frozen in liquid nitrogen and stored at −80° C.
Tissues were individually homogenized by a Polytron homogenizer in three volumes of 1 mM Tris-HCl buffer, pH 7.5, containing 1 mM EDTA, 0.25 M sucrose and protease inhibitor cocktail. The supernatant from 10,000× g centrifugation of the homogenate for 15 min was further centrifuged at 100,000× g for 1 h. The microsomal membranes were suspended in 100 mM NaH2PO4, pH 7.4, 10 mM MgCl2, 20% glycerol, and protease inhibitor cocktail, and 25 μg of the membrane protein was subjected to Western blot analysis.
The liver microsomal membranes were lysed with 0.5 ml lysis buffer (10 mM Tris-HCl (pH 7.4), 1% SDS). After sonication, the lysate was boiled for 5 min. […]

[2] = tested on: cytochrome P450 proteins (CYP1A1, 1A2 and 2E1) in liver; assay: inducibility of CYP1A1, 1A2 and 2E1 in the liver after AOM; type: in vivo, mouse; conditions: AOM 15 mg/kg bolus I.P.
Source text: Anti-rabbit anti-human CYP1A1/1A2 and CYP2E1 antisera were obtained from Dr. F. P. Guengerich, Department of Biochemistry, Vanderbilt University. See Soucek et al., (1995) Biochem. 34:16013-16021; Shimada et al., (1992) Mol. Pharmacol. 41:856-864. The cross-reactivities of these antibodies to mouse CYP1A1/1A2 and 2E1 have been characterized.
The inducibilities of CYP1A1, 1A2 and 2E1 in the liver were exaimed.

colon tumors [3] = assay: AOM-induced colon tumors in F2 mice crossbred with SWR/J (Table 4); type: in vivo, mouse; conditions: AOM 10 mg/kg I.P. 4 consecutive weeks, 26 weeks
Description: . […] The colons and livers were macroscopically examined. […] Tumor size was measured with a caliper.
In Example 2, clear-cut results were obtained that the AT2 receptor is involved in AOM-induced colon cancer. A concern was that this might be true only in the mouse strain crossbred from 129/OIa and C57BL/6J mouse strains. In order to overcome this problem, the AT2-KO mice in this crossbred strain were back-crossed with SWR/J mice, whose susceptibility to AOM is established. During the course of back-crossing, similar experiments were performed as described in Example 1, using F2 male wild and AT2-KO mice.

[4] = tested on: O^6-methylguanine adduct in colon DNA; assay: colonic O^6-methylguanine adduct level after AOM, immuno-slot-blot
Description: AT2 receptor blocker PD123319 treatment (15 mg/kg/12 h, gavage administration and 50 μg/ml in drinking tap water) was initiated 3 h prior to the AOM treatment. The control group for the AOM treatment received saline. Mice for the short term study were sacrificed 6 h or 24 h after AOM treatment.
Immediately after the mice were sacrificed by cervical dislocation, the colon was excised, washed with phosphate-buffered saline, divided into proximal and distal segments, and snap-frozen in liquid N2. Small portions of each lobe of the liver were also removed and frozen in the same manner. Tissue was digested in a lysis buffer consisting of 10 mM Tris-HCl, pH 7.4, 1 mM EDTA, 1% SDS, 5× SSC and 0.2 mg/ml Proteinase K. DNA was extracted by phenol/chloroform/isoamyl alcohol and precipitated with ice-cold ethanol by standard protocols. Samples were then treated with RNase A (50 mg/ml) and DNA was fragmented by sonication. The concentration of DNA was determined by the absorbance at 260 nm.
DNA samples were heat-denatured for 10 min, immediately chilled on ice, and mixed with an equal volume of 2 M ammonium acetate. […] Relative blot intensities were measured by densitometry using a Fluor-S image analyzer (Bio-Rad Laboratories, Inc., Hercules, Calif., United States of America).

[5] = chronic administration, 30 mg/kg/day, rats; cited from earlier work
[6] = tested on: colon polyp or adenocarcinoma; assay: Example 1: course of oral PD123319 treatment of colon polyps and colorectal adenocarcinoma; type: in vivo
Description: PD123319, an angiotensin II receptor (AT2 receptor) antagonist, is available in 1-mg, 10-mg, 50-mg, 100-mg, 250 mg, 500 mg, and 1000 mg tablets for oral administration and in 1-mg, 10-mg, 50-mg, 100-mg, 500 mg, 1000 mg, 5000 mg, and 10,000 mg suppositories for rectal administration.
PD123319 is indicated for the treatment of colorectal cancer including non-malignant polyps of the colon and colorectal adenocarcinoma. There are no known contradictions to treatment with PD123319.
A 12-20 week course of therapy yields a remission of adenocarcinoma (e.g., tumor number and/or volume) in greater than 79% of individuals that are diagnosed with at least one adenocarcinoma. Total dose per day is determined by severity (number and/or cancer stage) as assessed by a treating veterinarian or physician. A preferred course of treatment for a patient with colorectal polyps is 10-30 mg (medication) per kg (body weight) per day. A preferred course of treatment for a patient with colorectal adenocarcinoma is 20-30 mg/kg/day. In certain cases, a course of treatment for a patient with colorectal adenocarcinoma is 100 mg/kg/day administered orally or as a suppository. A preferred maintenance or chemoinhibitory course of therapy is typically 1.0 to 10 mg/kg. […]

AT2 receptor = molecular target: T1, AT2 receptor (Mus musculus, UniProt P35374); conditions: read-out: IC50 for the inhibition of ligand-receptor binding; cited from earlier work
T1 sequence (P35374 1-363): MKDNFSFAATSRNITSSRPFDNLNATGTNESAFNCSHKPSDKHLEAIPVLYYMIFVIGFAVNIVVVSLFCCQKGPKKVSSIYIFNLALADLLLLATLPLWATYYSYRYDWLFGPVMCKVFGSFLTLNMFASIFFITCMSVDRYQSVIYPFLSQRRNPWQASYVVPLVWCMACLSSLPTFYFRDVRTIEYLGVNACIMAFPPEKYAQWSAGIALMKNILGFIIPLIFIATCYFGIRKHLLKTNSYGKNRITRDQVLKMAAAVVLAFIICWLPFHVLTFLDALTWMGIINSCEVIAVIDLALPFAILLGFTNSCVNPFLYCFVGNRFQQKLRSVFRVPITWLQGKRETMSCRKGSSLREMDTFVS

[7] = daily administration of the pressor dose (10-50 mg/kg/day), man and animals; cited from earlier work
[8] = molecular target: T2, mouse angiotensin II type 2 receptor (mouse, UniProt P35374 1-363); assay: radioligand-receptor binding on mouse liver and colon plasma membranes
T2 construct: Native receptor in mouse tissue (liver and colon plasma membranes, liver nuclei), not a recombinant construct; also called AT2 receptor; AT2
T2 sequence: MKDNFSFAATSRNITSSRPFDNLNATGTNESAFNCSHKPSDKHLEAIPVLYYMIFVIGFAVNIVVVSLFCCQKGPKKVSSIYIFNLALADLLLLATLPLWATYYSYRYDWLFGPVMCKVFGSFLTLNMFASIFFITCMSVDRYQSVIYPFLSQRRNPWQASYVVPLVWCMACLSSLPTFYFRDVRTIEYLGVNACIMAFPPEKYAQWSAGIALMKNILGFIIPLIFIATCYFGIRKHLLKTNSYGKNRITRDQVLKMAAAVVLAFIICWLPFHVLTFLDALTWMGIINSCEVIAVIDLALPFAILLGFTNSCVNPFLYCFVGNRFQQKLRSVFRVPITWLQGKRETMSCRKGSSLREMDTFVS

[9] = AOM 10 mg/kg bolus I.P., both wild type and AT2-null mice

Molecule: CN=[N+](C)[O-] [AOM, azoxymethane]
- Body Weight (colon tumors [1]; AT2-KO mice): 36.5 ± 1.6 g
- Colon Tumors Multiplicity = average number of tumors/mouse (colon tumors [1]; AT2-KO mice): 0.11
- Colon Tumors Prevalence (%) = percent of tumor-bearing mice (colon tumors [1]; AT2-KO mice): 11.1%
- Colon Tumors Total Number (colon tumors [1]; AT2-KO mice): 1
- Body Weight (colon tumors [1]; Control (wild type) mice): 36.5 ± 4.3 g
- Colon Tumors Multiplicity = average number of tumors/mouse (colon tumors [1]; Control (wild type) mice): 7.38
- Colon Tumors Prevalence (%) = percent of tumor-bearing mice (colon tumors [1]; Control (wild type) mice): 100%
- Colon Tumors Total Number (colon tumors [1]; Control (wild type) mice): 59
- share of tumors 22 mm^3 (large tumors) (colon tumors [1]; wild type mice, AOM 10 mg/kg I.P. 4 weekly): over 55%
- effect on CYP2E1 protein expression in liver (hepatic CYP2E1; [9]): significantly downregulated
- effect on hepatic cytochrome P450 levels ([2]; AT2-KO mice, 24 h after injection): decreased substantially
- effect on levels of cytochrome P450 proteins in liver ([2]; wild type mouse liver): significantly increased
- Colon Tumors Multiplicity (colon tumors [3]; AT2-KO F2 male mice): 6.3
- Colon Tumors Prevalence (%) (colon tumors [3]; AT2-KO F2 male mice): 100.0%
- Colon Tumors Total Number (colon tumors [3]; AT2-KO F2 male mice): 50
- Colon Tumors Volume (mm^3) = total tumor volume/number of tumors (colon tumors [3]; AT2-KO F2 male mice): 19.8 ± 3.0 mm^3
- Colon Tumors Multiplicity (colon tumors [3]; Control (wild) F2 male mice): 12.0
- Colon Tumors Prevalence (%) (colon tumors [3]; Control (wild) F2 male mice): 100.0%
- Colon Tumors Total Number (colon tumors [3]; Control (wild) F2 male mice): 96
- Colon Tumors Volume (mm^3) = total tumor volume/number of tumors (colon tumors [3]; Control (wild) F2 male mice): 36.8 ± 3.2* mm^3
- effect on colonic O^6-methylguanine levels [4, 9]: time-dependently increased

Molecule: Cc1cc(Cn2cnc3c2C[C@@H](C(=O)O)N(C(=O)C(c2ccccc2)c2ccccc2)C3)ccc1N(C)C [PD123319]
- adverse effects [5]: does not show any adverse effects
- effect on AOM-induced CYP2E1 downregulation in the liver (hepatic CYP2E1; wild type mice, pretreatment 15 mg/kg/12 h by gavage and 0.35 mg/kg/h in drinking water, AOM 10 mg/kg I.P., 24 h): significantly attenuated
- colon polyp or adenocarcinoma number as determined by endoscopy ([6]; 4-8 week course, oral administration): significant reduction
- remission of adenocarcinoma (tumor number and/or volume) ([6]; 12-20 week course of therapy, individuals diagnosed with at least one adenocarcinoma): greater than 79 % of individuals
- effect on AOM-induced increase in the colonic O^6-methylguanine level ([4]; wild type mice, 15 mg/kg/12h by gavage and 0.35 mg/kg/h in drinking water, 24 h after AOM 10 mg/kg): markedly attenuated
- IC50 (AT2 receptor): 10 nM

Molecule: CCCCc1nc(Cl)c(CO)n1Cc1ccc(-c2ccccc2-c2nn[nH]n2)cc1 [losartan]
- side effects [7]: no serious side effects

B1: [^125I]Sar^1·Ile^8·Ang II (peptide)
peptide: XRVYIHPI
modifications: sarcosine at position 1 in place of Asp; 125I label
notes: X stands for sarcosine
- binding result [8]: binds
